Common to all, as to test: NCI tumour cell line growth inhibition, 48 h
Experiment [1] concerns HCC-2998 colon.
Experiment [2] deals with TK-10 renal.
Experiment [3] has as its system UO-31 renal.
In experiment [4] the test system is OVCAR-3 ovarian.
Experiment [5] deals with U251 CNS.
Experiment [6] deals with SN12C renal.
In experiment [7] the test system is HCT-15 colon.
Experiment [8] deals with NCI-H226 lung.
Experiment [9] deals with HCT-116 colon.
Experiment [10] relates to LOX IMVI melanoma.

The values that follow come from PubChem BioAssay (NCI).

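Interpolation was linear, between the two tested concentrations surrounding the appropriate level; five concentrations were tested over 48 hours in 96-well plates. At the GI50, growth is halved. TGI marks complete inhibition of growth.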

On to `Brc1cccc(-c2cc(-c3ccc4nccnc4c3)[nH]n2)c1`, for which the GI50 in [1] was 3.25 µM; in experiment [2], 2.95 µM; in [3] it was 1.9 µM; in [4] it was 0.485 µM; in [5], 0.938 µM; in experiment [6], 1.39 µM. Besides, the GI50 was 0.165 µM in experiment [7], 0.603 µM in experiment [9] and 1.42 µM in experiment [10]. Further, the TGI was over 250 µM in experiment [1]; over 250 µM in experiment [2]; over 250 µM in [3]; 75.2 µM in experiment [5]; over 250 µM in experiment [6]; over 250 µM in [7]. In addition, the TGI is over 250 µM in [8], over 84.2 µM in experiment [9] and over 250 µM in experiment [10].
On to `O=C1c2ccccc2C(=O)N1C1(C(=O)NC2(C(=O)O)CCCC2)CCCC1`, for which the TGI in experiment [1], in [2], in experiment [3], in experiment [4], in experiment [5] and in [6] was over 100 µM in each case. The TGI in [7], in experiment [8], in [9] and in experiment [10] was over 100 µM in each case.
Take `CCN(CC)CCCC(C)Nc1c(Sc2cnc3cc(Cl)ccc3c2NC(C)CCCN(CC)CC)cnc2cc(Cl)ccc12` (stereo not drawn): the TGI in experiment [1] is 1.14 µM; in experiment [2], 3.24 µM; in experiment [3], 35.5 µM; in experiment [4], 3.78 µM; in [5], 2.99 µM; in experiment [6] it was 3.53 µM. The TGI in experiment [7] was found to be 3.16 µM; in experiment [8], 3.52 µM; in experiment [9] it was 2.95 µM; in experiment [10] it was 3.36 µM.
As for `OCc1ccc(N2CCCC2)cc1Cl`, the GI50 in experiment [1] was 15.7 µM; in experiment [2], 0.201 µM; in experiment [3] it was 17.2 µM; in experiment [4], 2.18 µM; in experiment [5], 5.52 µM; in experiment [6], 47.6 µM. The GI50 in [7] is 31 µM; in experiment [8] it was 0.146 µM; in [9], 1.6 µM; in [10], over 86.9 µM. Further, the TGI in experiment [1] is 69.9 µM; in experiment [2], 0.556 µM; in [3], 50 µM; in experiment [4] it was 7.25 µM; in experiment [5], over 60.8 µM; in experiment [6], over 100 µM. Moreover, the TGI is over 100 µM in [7], 0.365 µM in experiment [8], over 100 µM in experiment [9] and over 100 µM in [10].
`COc1cccc(CC(C)=C(c2ccc(OCCCN(C)C)cc2)c2ccc(OCCCN(C)C)cc2)c1`: the GI50 in experiment [1] is 0.446 µM; in experiment [2], 1.35 µM; in experiment [3], 0.424 µM; in experiment [4], 0.545 µM; in experiment [5], 0.479 µM; in [6], 0.533 µM. The GI50 in experiment [7] is 0.478 µM; in experiment [8], 2.84 µM; in experiment [9], 0.447 µM; in [10], 0.428 µM. In addition, the TGI was 0.906 µM in experiment [1]; 3.01 µM in experiment [2]; 0.795 µM in experiment [3]; 1.2 µM in [4]; 0.987 µM in [5]; 1.22 µM in experiment [6]. The TGI in experiment [7] turned out to be 0.95 µM; in experiment [8], 6.95 µM; in experiment [9] it was 0.839 µM; in experiment [10], 0.807 µM.
Consider `CN1CCN(c2cc3nc4ccccc4n(-c4ccc(Cl)cc4)c-3cc2=N)CC1`, for which the GI50 in experiment [1] was 23.1 µM; in experiment [2], 36.1 µM; in [3], 29.2 µM; in experiment [4] it was 2.78 µM; in experiment [5] it was 18.9 µM; in experiment [6] it was 19.4 µM. The GI50 in [7] is 23.4 µM; in experiment [8], 60.7 µM; in experiment [9] it was 22.2 µM; in [10] it was 15.7 µM. The TGI in [1] was 54.9 µM; in experiment [2], over 100 µM; in [3], over 100 µM; in experiment [4], 16.7 µM; in experiment [5], 49.7 µM; in experiment [6], 41.4 µM. Further, the TGI was 81.3 µM in [7], over 100 µM in experiment [8], 57.2 µM in experiment [9] and 36.6 µM in [10].
Turning to `Nc1n[nH]c2ccc([C@@H]3Nc4cc5[nH]ncc5cc4[C@H]4C5CCC(C5)[C@@H]34)cc12` (stereo partly drawn), the GI50 in experiment [1] was 0.789 µM; in experiment [2] it was 17.2 µM; in experiment [3] it was 0.626 µM; in experiment [4], 0.381 µM; in experiment [5], 0.43 µM; in experiment [6] it was 0.525 µM. Moreover, the GI50 in [7] was 0.431 µM; in experiment [8], 1.17 µM; in experiment [9] it was 0.416 µM; in [10], 0.659 µM. For the same compound, the TGI in experiment [1] is 49.1 µM; in [2], over 95.9 µM; in experiment [3], over 100 µM; in experiment [4] it was 13.3 µM; in experiment [5], over 58 µM; in experiment [6], over 82.9 µM. The TGI is over 100 µM in experiment [7], 46.2 µM in [8], over 100 µM in experiment [9] and 74.8 µM in [10].
`CCCCc1c2c(nc3c1CCc1cc4cc5c(nc4nc1-3)-c1nc3c(c(CCCC)c1CC5)CCC/C3=C\c1ccccc1)/C(=C/c1ccccc1)CCC2`: the TGI in experiment [1], in experiment [2], in experiment [3], in experiment [4], in [5] and in experiment [6] was over 100 µM throughout. Also, the TGI in experiment [7], in [8], in experiment [9] and in experiment [10] was over 100 µM in each case.
For `C#C[C@H]1CCCCCC1O` (stereo partly drawn), the TGI in experiment [1], in experiment [2], in experiment [3], in experiment [4], in experiment [5] and in experiment [6] was over 100 µM each time. Also, the TGI in experiment [7], in experiment [8], in experiment [9] and in [10] was over 100 µM each time.
Regarding `COc1cccc(C2C(C#N)=C(N)Oc3c2ccc2ccccc32)c1` (stereo not drawn), the GI50 is 0.0355 µM in experiment [1]; 5.71 µM in experiment [2]; 0.054 µM in experiment [3]; under 0.0144 µM in experiment [4]; 0.0213 µM in experiment [5]; 0.0406 µM in experiment [6]. Also, the GI50 was under 0.01 µM in experiment [7], 0.0208 µM in experiment [8], under 0.0128 µM in [9] and under 0.0164 µM in experiment [10]. Further, the TGI in experiment [1] was found to be 1.1 µM; in experiment [2], 27.3 µM; in experiment [3] it was 14.3 µM; in [4] it was 0.0439 µM; in experiment [5] it was 11.1 µM; in [6] it was 13.5 µM. Also, the TGI in [7] turned out to be 10.2 µM; in experiment [8], 1 µM; in [9], 3.42 µM; in [10], 10.8 µM.
On to `COC1(C)C(=O)N2C1N(C(=O)OCc1ccccc1)CC2(C)C` (stereo not drawn), for which the TGI in [1], in experiment [2], in experiment [3], in [4], in experiment [5] and in [6] was over 100 µM in each case. The TGI in experiment [7], in [8], in [9] and in experiment [10] was over 100 µM in each case.
Regarding `O=C(NN1C(=O)CSC1c1ccc(F)cc1)C(O)c1ccccc1` (stereo not drawn), the GI50 was over 100 µM in experiment [1]; over 100 µM in experiment [2]; over 100 µM in experiment [3]; 79.5 µM in experiment [4]; 97.4 µM in experiment [5]; over 100 µM in [6]. For the same compound, the GI50 in [7], in [8], in [9] and in [10] was over 100 µM in each case. The TGI in experiment [1], in [2], in experiment [3], in experiment [4], in experiment [5] and in experiment [6] was over 100 µM each time. The TGI in experiment [7], in [8], in [9] and in experiment [10] was over 100 µM each time.
Consider `NCCC(=O)NC(Cc1cnc[nH]1)C(=O)O` (stereo not drawn), for which the TGI in experiment [1], in experiment [2], in experiment [3], in experiment [4], in [5] and in experiment [6] was over 100 µM each time. Moreover, the TGI in [7], in experiment [8], in experiment [9] and in experiment [10] was over 100 µM in each case.
In the case of `NC(=O)c1cccc(-c2cc(C(N)=O)ccc2Cl)c1`, the GI50 in [1] was 7.43 µM; in [2], 9.12 µM; in [3], 4.61 µM; in [4] it was 2.36 µM; in [5] it was 2.88 µM; in experiment [6], 4.85 µM. In addition, the GI50 was 0.846 µM in experiment [7], 13.4 µM in [8], 2.35 µM in experiment [9] and 4.84 µM in experiment [10]. Also, the TGI in experiment [1] was over 100 µM; in experiment [2], over 100 µM; in experiment [3] it was over 100 µM; in experiment [4], 37.5 µM; in experiment [5] it was over 100 µM; in experiment [6] it was 88.3 µM. For the same compound, the TGI in experiment [7], in [8], in [9] and in [10] was over 100 µM each time.
